Structures are written as SMILES.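 Test compounds were applied to cells in 96-well plates for 48 hours at 5 doses. At the GI50, growth is halved.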 Active and inactive are the calls of the source. Rule as the data show it: active = GI50 up to about 1.1 µM and inactive = higher. A value given as a limit tells only on which side of the number the result lay.

Assay in all cases: NCI-60 cell line screen, 48 h
The subject of assay [1] is ACHN.
The subject of assay [2] is CCRF-CEM.
Assay [3] has as its system EKVX.
Assay [4] concerns HCT-116.
The test system of assay [5] is HOP-92.
The subject of assay [6] is K562.
Assay [7] concerns M14.
Assay [8] deals with NCI-H23.
For assay [9], the system named is NCI-H460.
In assay [10] the test system is OVCAR-3.
The subject of assay [11] is SK-MEL-5.
The test system of assay [12] is SN12C.
Assay [13] relates to SNB-75.
Assay [14] has as its system SW-620.
For assay [15], the system named is UO-31.
Assay [16] concerns DU-145.
The subject of assay [17] is MDA-MB-435.
Assay [18] relates to NCI-H522.
For assay [19], the system named is MDA-N.

In the case of `O=c1c2cc(Br)ccc2[nH]c(=S)n1-c1ccccc1`, the GI50 in [1], in [2], in [3], in [4], in assay [5] and in assay [6] was > 100 µM (inactive) throughout. Also, the GI50 in assay [7], in assay [8], in [9], in [10], in assay [11] and in assay [12] was > 100 µM (inactive) throughout. Besides, the GI50 in [13], in assay [14] and in [15] was > 100 µM (inactive) throughout.

On to `Nn1c(CCCCCCCCc2nnc(COc3ccc4ccccc4c3O)n2N)nnc1COc1ccc2ccccc2c1O`, for which the GI50 is 31.3 µM (inactive) in assay [1]; 33.8 µM (inactive) in assay [16]; 43.7 µM (inactive) in assay [3]; 9.75 µM (inactive) in assay [4]; 17.3 µM (inactive) in [5]; 41.7 µM (inactive) in assay [6]. For the same compound, the GI50 in assay [7] is 30.1 µM (inactive); in assay [17], 29.9 µM (inactive); in [8], 16 µM (inactive); in assay [9], 29 µM (inactive); in [18], 14.6 µM (inactive); in assay [11] it was 20.1 µM (inactive). The GI50 in assay [12] was 39.3 µM (inactive); in assay [13] it was 51.1 µM (inactive); in assay [14], 52.7 µM (inactive); in assay [15], 28.4 µM (inactive).

As to `COc1cc(C2c3cc4c(cc3[C@@H](Nc3ccccc3)C3COC[C@H]23)OCO4)cc(OC)c1O` (stereo partly drawn), the GI50 was 0.483 µM (active) in assay [1]; 0.235 µM (active) in [2]; 15.4 µM (inactive) in [3]; 1.41 µM (inactive) in assay [4]; 1.8 µM (inactive) in assay [6]; 2.59 µM (inactive) in assay [7]. In addition, the GI50 in assay [17] is 7.13 µM (inactive); in assay [19], 7.35 µM (inactive); in assay [9], 0.148 µM (active); in assay [18], 2.2 µM (inactive); in [11], 2.3 µM (inactive); in assay [12], 1.9 µM (inactive). Moreover, the GI50 in assay [13] is 2.23 µM (inactive); in assay [14] it was 1.81 µM (inactive); in [15] it was 1.15 µM (inactive).

As to `CC(=O)OCC1OC(O/C=C(\CN=[N+]=[N-])C(C)=O)C(OC(C)=O)C(OC(C)=O)C1OC(C)=O` (stereo not drawn), the GI50 in [1] is 3.4 µM (inactive); in assay [2] it was 1.39 µM (inactive); in [3] it was 14.7 µM (inactive); in [4], 3.51 µM (inactive); in assay [5] it was 6.15 µM (inactive); in assay [6], 5.02 µM (inactive). Besides, the GI50 in [7] is 8 µM (inactive); in [17], 4.57 µM (inactive); in [19], 8.85 µM (inactive); in assay [8], 9.44 µM (inactive); in [9], 21.6 µM (inactive); in assay [18] it was 1.79 µM (inactive). Further, the GI50 is 8.59 µM (inactive) in [10]; 13.2 µM (inactive) in assay [11]; 7.96 µM (inactive) in assay [12]; 13.5 µM (inactive) in assay [13]; 3.53 µM (inactive) in assay [14]; 8.28 µM (inactive) in assay [15].

Turning to `Cc1ccc(S(=O)(=O)NC(=O)NC(C(=O)O)C(C)C)cc1` (stereo not drawn), the GI50 in assay [1], in assay [2], in assay [16], in assay [4], in assay [5] and in [6] was > 100 µM (inactive) in each case. The GI50 in [7], in assay [19], in [8], in assay [9], in assay [18] and in assay [11] was > 100 µM (inactive) throughout. Also, the GI50 in assay [12], in assay [13], in assay [14] and in [15] was > 100 µM (inactive) in each case.

`Cc1ccc(NC(=O)CSC(N)=O)cc1C`: the GI50 in assay [1], in assay [2], in [16], in assay [3], in [4] and in assay [5] was > 100 µM (inactive) each time. Further, the GI50 in [6] is > 100 µM (inactive); in assay [7], 40.8 µM (inactive); in assay [17], > 100 µM (inactive); in assay [8], > 100 µM (inactive); in assay [9], > 100 µM (inactive); in [18], 89.9 µM (inactive). Further, the GI50 in [10], in assay [11], in [12], in assay [13], in assay [14] and in assay [15] was > 100 µM (inactive) each time.

For `CC12CO[C@@](C)(CC(S(=O)(=O)c3ccccc3)C1)O2` (stereo partly drawn), the GI50 in [1], in assay [2], in [3], in assay [4], in assay [5] and in assay [6] was > 100 µM (inactive) throughout. In addition, the GI50 in assay [7], in assay [8], in [9], in [18], in assay [10] and in [11] was > 100 µM (inactive) each time. The GI50 in [12] is > 100 µM (inactive); in assay [13], 37 µM (inactive); in assay [14], > 100 µM (inactive); in [15] it was > 100 µM (inactive).

Consider `CNS(=O)(=O)NN(C)S(=O)(=O)c1ccccc1`, for which the GI50 in [1], in [2], in [3], in assay [4], in [6] and in assay [7] was > 100 µM (inactive) each time. The GI50 in [8] is > 100 µM (inactive); in assay [9], 85.9 µM (inactive); in assay [18], > 100 µM (inactive); in assay [11], > 100 µM (inactive); in assay [12] it was > 100 µM (inactive); in [13] it was > 100 µM (inactive). The GI50 in assay [14] and in [15] was > 100 µM (inactive) each time.

As to `CC1=C(C(=O)Nc2ccccc2)C(c2ccccc2)C(C(=O)Nc2ccccc2)=C(C)N1`, the GI50 was 17.6 µM (inactive) in assay [1]; 76.4 µM (inactive) in assay [3]; 26.5 µM (inactive) in [4]; 29.3 µM (inactive) in assay [5]; 31.5 µM (inactive) in assay [7]; 43.1 µM (inactive) in assay [8]. The GI50 in assay [9] was 45.8 µM (inactive); in [18] it was 16.3 µM (inactive); in [10] it was 40.4 µM (inactive); in assay [11], 36.9 µM (inactive); in [12], > 100 µM (inactive); in assay [13] it was 37.3 µM (inactive). Also, the figures for the GI50 in assay [14] and in assay [15] were 47.5 µM (inactive) and 71.6 µM (inactive), respectively.

As to `C=C1C(=O)C23C(CC(OC(C)=O)C1[C@@H]2OC(C)=O)C1(C)C(OC(C)=O)CCC(C)(C)C1C[C@@H]3OC(C)=O` (stereo partly drawn), the GI50 is 1.56 µM (inactive) in assay [1]; 3.31 µM (inactive) in [3]; 1.62 µM (inactive) in [4]; 0.167 µM (active) in assay [5]; 0.755 µM (active) in assay [6]; 1.56 µM (inactive) in assay [7]. Also, the GI50 in assay [9] was 1.61 µM (inactive); in [18], 0.453 µM (active); in [10], 1.66 µM (inactive); in assay [11], 1.84 µM (inactive); in assay [12], 1.46 µM (inactive); in assay [13] it was 1.52 µM (inactive). The results for the GI50 in assay [14] and in assay [15] were 1.26 µM (inactive) and 1.8 µM (inactive), respectively.

For `O=C1CCCCCCC2=C1C(Sc1ccccc1)CC2` (stereo not drawn), the GI50 in assay [1] is 36.1 µM (inactive); in assay [2] it was 9.08 µM (inactive); in assay [3], 20.5 µM (inactive); in [4], 21.7 µM (inactive); in [6], 27.2 µM (inactive); in assay [7] it was 45.9 µM (inactive). Further, the GI50 in assay [8] is 33.9 µM (inactive); in [9], 27.2 µM (inactive); in assay [18], 18.5 µM (inactive); in [11] it was 30.5 µM (inactive); in [12] it was 19.9 µM (inactive); in [13], 21.1 µM (inactive). Besides, the GI50 in [14] was 36.3 µM (inactive); in [15], 18.8 µM (inactive).

With `CCOc1c(OC)cc(C2c3cc4c(c(OCC)c3CC3COC(=O)C32)OCO4)cc1OC` (stereo not drawn), the GI50 is 1.79 µM (inactive) in [1]; 2.67 µM (inactive) in assay [2]; 2.69 µM (inactive) in assay [16]; 12.7 µM (inactive) in assay [3]; 2.16 µM (inactive) in assay [4]; 37.1 µM (inactive) in assay [5]. In addition, the GI50 is 1.83 µM (inactive) in assay [6]; 3.15 µM (inactive) in assay [7]; 0.272 µM (active) in assay [17]; 1.82 µM (inactive) in [8]; 3.21 µM (inactive) in [9]; 2.25 µM (inactive) in assay [18]. Further, the GI50 in [10] was 1.12 µM (active); in assay [11], 1.63 µM (inactive); in assay [12] it was 2.21 µM (inactive); in [13], 5.11 µM (inactive); in [14], 1.24 µM (inactive); in [15] it was 3.87 µM (inactive).

For the origin of these results see ChEMBL document CHEMBL1201862, “PubChem BioAssay data set” (2004).
